Experimental data taken from article PMC3888718, “F-18 Labeled Vasoactive Intestinal Peptide Analogue in the PET Imaging of Colon Carcinoma in Nude Mice” (BioMed Research International, 2013).
Read-outs that look alike come from different tables or passages of the source. Where a SMILES comes first, the peptide text is derived from it. The star is where a group is joined. Benzoyl(4-F) = O=C(c1ccc(F)cc1)*

Assays:
[1] = tissue distribution test in normal BALB/C mice; assay type: in vivo; conditions: 100 μCi tail vein, 5-120 min, γ counter, n = 5 per group
Method: All animal experiments followed the laboratory animal specifications of Zhongshan Hospital, Fudan University. In order to obtain preliminary in vivo pharmacokinetics data of this radiolabeled polypeptide, 100 μL 3.7 MBq (100 μCi) [F-18]FB-[R^8,15,21, L^17]-VIP was injected into each normal BALB/C mouse through tail vein. 20 mice were assigned to 4 groups evenly. At 5, 30, 60, and 120 min following injection, they were sacrificed under anesthesia. Mice in each group were immediately subject to autopsy, where the organs and tissues of interest, including brain, liver, kidneys, heart, lungs, spleen, stomach, small intestine, muscles, bones, and blood, were collected. All the tissue samples were weighed and their counting were measured by γ counter, so that the percent injected dose per each gram of tissue (% ID/g) was derived.

C26 colon carcinoma = assay: micro-PET imaging in C26 tumor bearing mice; assay type: in vivo; conditions: micro-PET images, C26 tumor bearing mice
Method: (§1) C26 tumor bearing mice were obtained by right subaxillary implantation and were used in PET imaging test when the tumor had grown to the size of about 1 cm. PET imaging test in small animals was performed on a micro-PET R4 scanner (Concorde Microsystems, Siemens, Germany). After sodium pentobarbital anesthesia, C26 tumor bearing mice were injected with 1.5 MBq (40 μCi) [F-18]FB-[R^8,15,21, L^17]-VIP and placed in the central zone of the micro-PET device separately at 5 min, 60 min, and 120 min following injection. They underwent static scanning for 10 min at different points. The original data obtained were transformed into 2D image by Fourier transform and 2D FBP reconstruction.
(§2) Blocking experiment was conducted to explore whether [F-18]FB-[R^8,15,21, L^17]-VIP was receptor-specific. 100 μg of nonlabeled VIP polypeptide mixed with 40 μCi [F-18]FB-[R^8,15,21, L^17]-VIP was injected into each C26 tumor bearing mouse. The imaging experiment with blocking was performed 60 min following injection, using scanning for 10 min and the same procedures and data treatment process as above.

[2] = micro-PET imaging in C26 tumor bearing mice; assay type: in vivo; conditions: nude mice, tumor and muscle, total radioactivity, micro-PET; for tissue to tissue ratio at 1 h: 60 min after injection
Method: as §1, §2

VIP receptor = conditions: cited from earlier work
Excerpt: (§3) Since Virgolin initially reported use of ^123I labeled VIP in the imaging study of tumor VIP receptors, several potential ^123I, ^99 mTc, F-18, and ^64Cu labeled VIP analogues have been developed. […] Therefore, our early efforts mainly focused on the structural modification for improving in vivo stability of VIP polypeptide and a series of studie ...

[3] = cited from earlier work
Excerpt: as §3

[4] = tested on: colon carcinoma cells LS174T; conditions: mouse, in vivo; cited from earlier work
Excerpt: Like other neuropeptides, VIP is quickly metabolized in liver and excreted from kidneys. Given this, when VIP is to be used as an imaging agent, chemical modification of its structure is mandatory to extend the biological half-life in order to meet the imaging requirement. […] Pallela et al. labeled VIP analogue (TP3654) by ^99mTc and conducted animal distribution and imaging tests in nude mice transpla ...

CC[C@H](C)[C@H](NC(=O)[C@H](CO)NC(=O)[C@H](CC(N)=O)NC(=O)[C@H](CC(C)C)NC(=O)[C@H](Cc1ccc(O)cc1)NC(=O)[C@H](CCCNC(=N)N)NC(=O)[C@H](CCCCNC(=O)c1ccc(F)cc1)NC(=O)[C@@H](NC(=O)[C@H](C)NC(=O)[C@H](CC(C)C)NC(=O)[C@H](CCC(N)=O)NC(=O)[C@H](CCCNC(=N)N)NC(=O)[C@H](CCCNC(=N)N)NC(=O)[C@H](CC(C)C)NC(=O)[C@H](CCCNC(=N)N)NC(=O)[C@@H](NC(=O)[C@H](Cc1ccc(O)cc1)NC(=O)[C@H](CC(N)=O)NC(=O)[C@H](CCCNC(=N)N)NC(=O)[C@@H](NC(=O)[C@H](Cc1ccccc1)NC(=O)[C@@H](NC(=O)[C@H](C)NC(=O)[C@H](CC(=O)O)NC(=O)[C@H](CO)NC(=O)[C@@H](N)Cc1c[nH]cn1)C(C)C)[C@@H](C)O)[C@@H](C)O)C(C)C)C(=O)N[C@@H](CC(C)C)C(=O)N[C@@H](CC(N)=O)C(N)=O [[F-18]FB-[R^8,15,21, L^17]-VIP] (H-HSDAVFTRNYTRLRRQLAVK(Benzoyl(4-F))RYLNSILN-NH2; N-terminus assumed)
bone absorption (defluorination stability) [1]: low bone absorption | passage through the blood-brain barrier (C26 colon carcinoma): could not pass through the blood-brain barrier | bone absorption (in vivo defluorination stability) (C26 colon carcinoma; up until 120 min): no marked bone absorption | tissue to tissue ratio at 5 min ([2]; mouse, iv, 40 uCi, C26 tumor bearing mice, 40 μCi i.v., 5 min after injection, 10 min static scan, read-out: tumor-to-muscle ratio (T/M)): 1.84 | tissue to tissue ratio at 1 h ([2]; mouse, iv, 40 uCi, C26 tumor bearing mice, 40 μCi, unblocked, read-out: tumor-to-muscle ratio (T/M)): 3.03 | tissue to tissue ratio at 2 h ([2]; mouse, iv, 40 uCi, C26 tumor bearing mice, 40 μCi, 120 min after injection, read-out: tumor-to-muscle ratio (T/M)): 3.74 | tissue to tissue ratio at 1 h ([2]; C26 tumor bearing mouse, 40 μCi mixed with 100 μg nonlabeled VIP, read-out: tumor-to-muscle ratio (T/M), blocking experiment): 1.01

H-HSDAVFTRNYTRLRRQLAVKRYLNSILN-NH2 [[R^8,15,21, L^17]-VIP, VIP analogue, 28-residue peptide amide, precursor for F-18 labeling]
receptor affinity in comparison to native VIP (VIP receptor): higher | in vivo stability in comparison to native VIP [3]: higher

^125I-VIP: ^125I labeled vasoactive intestinal peptide
tumor/blood ratio (T/B) [4]: 0.88 ± 0.16 | tumor/muscle ratio (T/M) [4]: 0.38 ± 0.56
